Data published in paper PMC10652874, “Investigation into the mechanism of action of the antimicrobial peptide epilancin 15X” (Frontiers in Microbiology, 2023).

System: S. carnosus TM300
Assay: RNAseq differential gene expression
Format: cell-based, Staphylococcus carnosus
Description: For the RNAseq experiments, epilancin was added at sub-lethal concentration (0.5x MIC) to S. carnosus TM300 once the cultures reached an OD600 of 0.6. RNA was extracted 40 min after the treatment, using a FastRNA Pro Blue kit (MP Biomedicals). Both treated and parallel untreated samples were collected at the same time. Sequencing was performed at the Carver Biotechnology Center (UIUC). For RNAseq analysis, gene counts were read in to R (v3.1.1; [Team, 2014]), and 14/2441 genes were removed because they had fewer than 32 total counts across the six samples. edgeR’s (v3.6.7) TMM normalization ([Robinson and Oshlack, 2010]) plus negative binomial generalized log-linear model ([McCarthy et al., 2012]) was used to test for differential expression between treated and untreated groups, while accounting for pairing of U and T replicates from three different cultures. p-values were adjusted using the false discovery rate method ([Benjamini and Hochberg, 1995]).

Substance: Epilancin 15X
- fold_change Sca_1501 (hypothetical protein): 2.75
- fold_change Sca_1502 (hypothetical protein): 4.86
- fold_change Sca_1504 (hypothetical protein): 11.43
- fold_change Sca_1505 (hypothetical protein): 11.29
- fold_change Sca_1506 (hypothetical protein): 11.77
- fold_change Sca_1507 (hypothetical protein): 12.4
- fold_change Sca_1508 (hypothetical protein): 10.53
- fold_change Sca_1509 (hypothetical protein): 0.5
- fold_change Sca_1523 (hypothetical protein): 2.05
- fold_change Sca_1526 (hypothetical protein): 2.58
- fold_change Sca_1532 (hypothetical protein): 3.3
- fold_change Sca_1533 (hypothetical protein): 3.51
- fold_change Sca_1534 (hypothetical protein): 2.71
- fold_change Sca_1535 (hypothetical protein): 2.45
- fold_change Sca_1536 (hypothetical protein): 2.13
- fold_change Sca_1587 (hypothetical protein): 2.19
- fold_change Sca_1588 (hypothetical protein): 2.2
- fold_change Sca_1643 (hypothetical protein): 2.32
- fold_change Sca_1645 (hypothetical protein): 2.04
- fold_change Sca_1650 (hypothetical protein): 2.26
- fold_change Sca_1667 (hypothetical protein): 3.97
- fold_change Sca_1668 (hypothetical protein): 3.55
- fold_change Sca_1674 (hypothetical protein): 2.34
- fold_change Sca_1675 (hypothetical protein): 3.21
- fold_change Sca_1681 (hypothetical protein): 2.25
- fold_change Sca_1686 (hypothetical protein): 4.82
- fold_change Sca_1687 (hypothetical protein): 4.15
- fold_change Sca_1689 (hypothetical protein): 2.35
- fold_change Sca_1737 (hypothetical protein): 2.07
- fold_change Sca_1738 (hypothetical protein): 2.11
- fold_change Sca_1755 (hypothetical protein): 3.06
- fold_change Sca_1788 (hypothetical protein): 3.57
- fold_change Sca_1804 (hypothetical protein): 5.16
- fold_change Sca_1805 (hypothetical protein): 2.14
- fold_change Sca_1807 (hypothetical protein): 2.04
- fold_change Sca_1815 (hypothetical protein): 0.5
- fold_change Sca_1838 (hypothetical protein): 2.29
- fold_change Sca_1862 (hypothetical protein): 0.49
- fold_change Sca_1869 (hypothetical protein): 2.26
- fold_change Sca_1903 (hypothetical protein): 4.81
- fold_change Sca_1904 (hypothetical protein): 2.54
- fold_change Sca_1905 (hypothetical protein): 2.54
- fold_change Sca_1906 (hypothetical protein): 2.34
- fold_change Sca_1917 (hypothetical protein): 2.88
- fold_change Sca_1954 (hypothetical protein): 2.15
- fold_change Sca_1959 (hypothetical protein): 7.97
- fold_change Sca_1992 (hypothetical protein): 2.15
- fold_change Sca_2001 (hypothetical protein): 2.07
- fold_change Sca_2004 (hypothetical protein): 2.83
- fold_change Sca_2009 (hypothetical protein): 4.15
- fold_change Sca_2014 (hypothetical protein): 2.23
- fold_change Sca_2018 (hypothetical protein): 2.95
- fold_change Sca_2020 (hypothetical protein): 2.38
- fold_change Sca_2021 (hypothetical protein): 2.73
- fold_change Sca_2022 (hypothetical protein): 2.89
- fold_change Sca_2023 (hypothetical protein): 3.49
- fold_change Sca_2024 (hypothetical protein): 8.09
- fold_change Sca_2051 (hypothetical protein): 2.03
- fold_change Sca_2066 (hypothetical protein): 2.09
- fold_change Sca_2098 (hypothetical protein): 2.16
- fold_change Sca_2099 (hypothetical protein): 2
- fold_change Sca_2122 (hypothetical protein): 2.08
- fold_change Sca_2131 (hypothetical protein): 4.04
- fold_change Sca_2132 (hypothetical protein): 2.49
- fold_change Sca_2133 (hypothetical protein): 2.15
- fold_change Sca_2136 (hypothetical protein): 3
- fold_change Sca_2141 (hypothetical protein): 2.34
- fold_change Sca_2182 (hypothetical protein): 0.5
- fold_change Sca_2186 (hypothetical protein): 2.4
- fold_change Sca_2187 (hypothetical protein): 2.82
- fold_change Sca_2188 (hypothetical protein): 5.77
- fold_change Sca_2193 (hypothetical protein): 5.14
- fold_change Sca_2202 (hypothetical protein): 2.52
- fold_change Sca_2207 (hypothetical protein): 2.06
- fold_change Sca_2209 (hypothetical protein): 2.42
- fold_change Sca_2213 (hypothetical protein): 2.61
- fold_change Sca_2215 (hypothetical protein): 3.52
- fold_change Sca_2221 (hypothetical protein): 2.48
- fold_change Sca_2222 (hypothetical protein): 2.24
- fold_change Sca_2226 (hypothetical protein): 3.16
- fold_change Sca_2228 (hypothetical protein): 3.64
- fold_change Sca_2229 (hypothetical protein): 3.47
- fold_change Sca_2230 (hypothetical protein): 2.6
- fold_change Sca_2231 (hypothetical protein): 2.37
- fold_change Sca_2235 (hypothetical protein): 2.04
- fold_change Sca_2236 (hypothetical protein): 2.08
- fold_change Sca_2253 (hypothetical protein): 0.5
- fold_change Sca_2268 (hypothetical protein): 3.5
- fold_change Sca_2269 (hypothetical protein): 3.56
- fold_change Sca_2273 (hypothetical protein): 11.9
- fold_change Sca_2275 (hypothetical protein): 3.1
- fold_change Sca_2284 (hypothetical protein): 0.49
- fold_change Sca_2295 (hypothetical protein): 4.48
- fold_change Sca_2296 (hypothetical protein): 2.39
- fold_change Sca_2297 (hypothetical protein): 2.21
- fold_change Sca_2299 (hypothetical protein): 5.46
- fold_change Sca_2301 (hypothetical protein): 2.01
- fold_change Sca_2334 (hypothetical protein): 5.35
- fold_change Sca_2337 (hypothetical protein): 2.1
- fold_change Sca_2358 (hypothetical protein): 2.95
- fold_change Sca_2370 (hypothetical protein): 2.53
- fold_change Sca_2373 (hypothetical protein): 3.45
- fold_change Sca_2379 (hypothetical protein): 3.04
- fold_change Sca_2384 (hypothetical protein): 2.31
- fold_change Sca_2385 (hypothetical protein): 3.04
- fold_change Sca_2386 (hypothetical protein): 2.57
- fold_change Sca_2398 (hypothetical protein): 19.58
- fold_change Sca_2399 (hypothetical protein): 20.62
- fold_change Sca_2424 (hypothetical protein): 2.19
- fold_change Sca_2425 (hypothetical protein): 2.2
- fold_change Sca_2426 (hypothetical protein): 3.85
- fold_change Sca_2435 (hypothetical protein): 6.09
- fold_change Sca_2436 (hypothetical protein): 5.9
- fold_change Sca_2437 (hypothetical protein): 4.25
- fold_change Sca_2457 (hypothetical protein): 3.07
- fold_change orf1 (hypothetical protein): 2.79
- fold_change ydfG (hypothetical protein): 5.22
- fold_change Sca_1639 (hypothetical protein, gene fmhA'): 2.76
- fold_change Sca_1638 (hypothetical protein, gene fmhA''): 3.24
- fold_change Sca_1124 (iron uptake regulatory protein, gene fur): 2.1
- fold_change geh (lipase (fragment 1), gene geh'): 2.82
- fold_change geh' (lipase (fragment 2), gene geh''): 2.62
- fold_change Sca_0327 (lysine decarboxlyase family protein): 5.96
- fold_change dnaK (molecular chaperone DnaK): 2.67
- fold_change moeA (molybdopterin biosynthesis protein MoeA): 2.6
